Experimental data reported in ChEMBL document CHEMBL3085662, “Overman rearrangement and Pomeranz-Fritsch reaction for the synthesis of benzoazepinoisoquinolones to discover novel antitumor agents” (Eur J Med Chem, 2013).

Columns and labels:
A-375 [1] = assay: Cytotoxicity against human A375 cells after 72 hrs by MTT assay; type: functional, cell-based; conditions: A-375, 72 h
HCT-116 [2] = assay: Cytotoxicity against human HCT116 cells after 72 hrs by MTT assay; type: functional, cell-based; conditions: HCT-116, 72 h
NCI-H69 = assay: Cytotoxicity against human NCI-H69 cells at 10 uM after 72 hrs by MTT assay; type: functional; conditions: NCI-H69, 72 h
[3] = Cytotoxicity against human LN18 cells at 10 uM after 72 hrs by MTT assay; type: functional; conditions: LN-18, 72 h
HCT-116 [4] = assay: Cytotoxicity against human HCT116 cells at 10 uM after 72 hrs by MTT assay; type: functional; conditions: HCT-116, 72 h
HepG2 = assay: Cytotoxicity against human HepG2 cells at 10 uM after 72 hrs by MTT assay; type: functional; conditions: HepG2, 72 h
PC-3 = assay: Cytotoxicity against human PC3 cells at 10 uM after 72 hrs by MTT assay; type: functional; conditions: PC-3, 72 h
MDA-MB-231 = assay: Cytotoxicity against human MDA-MB-231 cells at 10 uM after 72 hrs by MTT assay; type: functional; conditions: MDA-MB-231, 72 h
[5] = Cytotoxicity against human U937 cells at 10 uM after 72 hrs by MTT assay; type: functional; conditions: U-937, 72 h
K562 = assay: Cytotoxicity against human K562 cells at 10 uM after 72 hrs by MTT assay; type: functional; conditions: K562, 72 h
cells = type: functional; conditions: Homo sapiens, 786-0, 72 h
Description: Cytotoxicity against human 786-O cells at 10 uM after 72 hrs by MTT assay

[6] = Cytotoxicity against human Jurkat E6-1 cells at 10 uM after 72 hrs by MTT assay; type: functional
A-375 [7] = assay: Cytotoxicity against human A375 cells at 10 uM after 72 hrs by MTT assay; type: functional; conditions: A-375, 72 h
[8] = Cytotoxicity against human NCI-H1115 cells at 10 uM after 72 hrs by MTT assay; type: functional; conditions: NCI-H1115, 72 h
HT-29 = assay: Cytotoxicity against human HT-29 cells at 10 uM after 72 hrs by MTT assay; type: functional; conditions: HT-29, 72 h
NCI-N87 = assay: Cytotoxicity against human NCI-N87 cells at 10 uM after 72 hrs by MTT assay; type: functional; conditions: NCI-N87, 72 h

SMILES	IC50 (A-375 [1]) [µM]	IC50 (HCT-116 [2]) [µM]	further results
COc1ccc2cc(-c3ccc4c(c3)OCO4)n(CC(O)CO)c(=O)c2c1OC (racemic)	> 10	> 10	–
COc1ccc2cc(-c3ccc4c(c3)OCO4)n(CC=O)c(=O)c2c1OC	3.77	9.23	–
CCCS(=O)(=O)Nc1ccc(F)c(C(=O)c2c[nH]c3ncc(-c4ccc(Cl)cc4)cc23)c1F [VEMURAFENIB]	0.18	> 30	–
C=CCOc1nc(-c2ccc3c(c2)OCO3)cc2ccc(OC)c(OC)c12	> 10	> 10	–
COc1ccc2cc(-c3ccc4c(c3)OCO4)[nH]c(=O)c2c1OC	7.99	> 10	–
CO/C=C/Cn1c(-c2ccc3c(c2)OCO3)cc2ccc(OC)c(OC)c2c1=O	0.11	0.42	–
CNC(=O)c1cc(Oc2ccc(NC(=O)Nc3ccc(Cl)c(C(F)(F)F)c3)cc2)ccn1 [SORAFENIB]	7.56	5.65	–
C=CCn1c(-c2ccc3c(c2)OCO3)cc2ccc(OC)c(OC)c2c1=O	0.2	0.86	–
C=Cc1cc2c(cc1-c1cc3ccc(OC)c(OC)c3c(=O)[nH]1)OCO2	0.43	1.54	–
C=CCOc1nc(-c2ccc(OC)c(OC)c2)cc2ccc(OC)c(OC)c12	> 10	> 10	–
COc1ccc2cc(-c3ccc4c(c3)OCO4)n(CCC=O)c(=O)c2c1OC	2.93	4.69	–
COc1ccc(-c2cc3ccc(OC)c(OC)c3c(=O)[nH]2)cc1OC	> 10	> 10	–
COc1ccc(-c2cc3ccc(OC)c(OC)c3c(=O)n2CCC=O)cc1OC	5.82	> 10	–
COc1ccc2cc3n(c(=O)c2c1OC)CC(O)C(O)c1cc2c(cc1-3)OCO2 (centres undefined)	9	22.2	inhibition at 10 µM (NCI-H69): 19.8%; inhibition at 10 µM [3]: 36.5%; inhibition at 10 µM (HCT-116 [4]): 32.8%; inhibition at 10 µM (HepG2): 20.9%; inhibition at 10 µM (PC-3): 33.9%; inhibition at 10 µM (MDA-MB-231): 9.29%; inhibition at 10 µM [5]: 23.5%; inhibition at 10 µM (K562): 15.6%; inhibition at 10 µM (cells): 11%; inhibition at 10 µM [6]: 14.8%; inhibition at 10 µM (A-375 [7]): 51.1%; inhibition at 10 µM [8]: 25.8%; inhibition at 10 µM (HT-29): 7.56%; inhibition at 10 µM (NCI-N87): 18.3%
COc1ccc2cc3n(c(=O)c2c1OC)CC=Cc1cc2c(cc1-3)OCO2	0.59	4.87	inhibition at 10 µM (NCI-H69): 56.8%; inhibition at 10 µM [3]: 56.4%; inhibition at 10 µM (HCT-116 [4]): 59.1%; inhibition at 10 µM (HepG2): 54.6%; inhibition at 10 µM (PC-3): 58.4%; inhibition at 10 µM (MDA-MB-231): 39.1%; inhibition at 10 µM [5]: 66.9%; inhibition at 10 µM (K562): 51%; inhibition at 10 µM (cells): 61.9%; inhibition at 10 µM [6]: 73%; inhibition at 10 µM (A-375 [7]): 86.5%; inhibition at 10 µM [8]: 77.7%; inhibition at 10 µM (HT-29): 50.3%; inhibition at 10 µM (NCI-N87): 46%
COc1cc2c(cc1OC)-c1cc3ccc(OC)c(OC)c3c(=O)n1CC=C2	2.1	8.84	–
C=CCn1c(-c2cc3c(cc2C=C)OCO3)cc2ccc(OC)c(OC)c2c1=O	0.17	0.65	–
C=CCn1c(-c2ccc(OC)c(OC)c2)cc2ccc(OC)c(OC)c2c1=O	0.5	> 10	–
